Reference: patent publication US20230265151A1, “GIP/GLP1 CO-AGONIST COMPOUNDS” (priority 2020, published 2023)
Like-named read-outs stand apart in the source and are kept apart here. *1 amine or outer side, *2 acyl side, *3 side chain or, on linkers, in order; H or OH if unused. Where a SMILES comes first, the peptide text is derived from it. Side-chain parts run from the residue outwards. [ ]: non-standard residue; d: D form. The star is where a group is joined. αMePhe(2-F) = C[C@](N)(Cc1ccccc1F)C(=O)O; γGlu = O=C(O)[C@H](CCC(=O)[*:2])N[*:1]; C14 diacid = O=C(O)CCCCCCCCCCCCC(=O)*; αMeY = C[C@](N)(Cc1ccc(O)cc1)C(=O)O; αMeL = CC(C)C[C@](C)(N)C(=O)O; Orn = NCCC[C@H](N)C(=O)O; AEEA = NCCOCCOCC(=O)O; Aib = CC(C)(N)C(=O)O

Columns and labels:
Assay type in all cases: cell-based
[1] = target: T1, hGIPR (Homo sapiens, UniProt P48546); experiment: Functional cAMP formation (HTRF) in HEK-293 clonal cells expressing hGIPR, 0.1% bovine casein, without or with 1.0% human serum albumin
T1 construct: expressed in transfected cells
T1 sequence (P48546 22-466): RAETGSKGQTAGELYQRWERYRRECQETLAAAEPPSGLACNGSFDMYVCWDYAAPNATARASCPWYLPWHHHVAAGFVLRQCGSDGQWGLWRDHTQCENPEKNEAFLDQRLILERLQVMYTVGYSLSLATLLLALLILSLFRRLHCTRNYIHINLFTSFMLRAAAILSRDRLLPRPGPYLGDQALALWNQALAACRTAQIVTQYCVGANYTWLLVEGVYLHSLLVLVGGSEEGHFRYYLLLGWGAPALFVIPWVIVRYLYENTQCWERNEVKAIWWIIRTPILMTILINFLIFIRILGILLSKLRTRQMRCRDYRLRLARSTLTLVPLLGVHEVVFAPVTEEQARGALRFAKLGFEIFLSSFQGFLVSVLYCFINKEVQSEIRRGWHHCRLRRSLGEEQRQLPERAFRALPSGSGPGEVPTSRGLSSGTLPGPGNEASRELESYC
Method in brief: (§1)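 Cells were stimulated with peptide for 30 min at 37° C, then lysed in buffer carrying cAMP-d2 and anti-cAMP Eu3+-cryptate for a competitive HTRF read after at least 60 min at room temperature. The 665/620 nm ratio was converted to nM cAMP against a standard curve.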

[2] = target: T2, hGCGR (Homo sapiens, UniProt P47871); experiment: Functional cAMP formation (HTRF) in HEK-293 clonal cells expressing hGCGR, 0.1% bovine casein, without or with 1.0% human serum albumin
T2 construct: expressed in transfected cells
T2 sequence (P47871 26-477): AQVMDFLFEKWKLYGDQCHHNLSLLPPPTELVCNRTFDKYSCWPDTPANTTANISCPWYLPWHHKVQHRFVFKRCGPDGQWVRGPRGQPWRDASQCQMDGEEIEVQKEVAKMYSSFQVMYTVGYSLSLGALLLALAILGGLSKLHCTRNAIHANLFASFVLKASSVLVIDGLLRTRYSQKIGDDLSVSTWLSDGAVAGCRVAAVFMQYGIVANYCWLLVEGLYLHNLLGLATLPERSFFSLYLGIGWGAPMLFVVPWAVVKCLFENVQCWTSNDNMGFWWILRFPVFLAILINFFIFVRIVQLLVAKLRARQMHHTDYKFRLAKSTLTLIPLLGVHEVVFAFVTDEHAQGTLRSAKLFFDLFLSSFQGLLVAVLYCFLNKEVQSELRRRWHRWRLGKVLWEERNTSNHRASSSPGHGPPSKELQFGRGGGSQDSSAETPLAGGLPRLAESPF
Method in brief: as §1

[3] = target: hGLP-1R (Homo sapiens, UniProt P43220); experiment: Functional cAMP formation (HTRF) in HEK-293 clonal cells expressing hGLP-1R, 0.1% bovine casein, without or with 1.0% human serum albumin; parameters: expressed in transfected cells; settings: for EC50: geometric mean
Sequence of hGLP-1R (P43220 24-463): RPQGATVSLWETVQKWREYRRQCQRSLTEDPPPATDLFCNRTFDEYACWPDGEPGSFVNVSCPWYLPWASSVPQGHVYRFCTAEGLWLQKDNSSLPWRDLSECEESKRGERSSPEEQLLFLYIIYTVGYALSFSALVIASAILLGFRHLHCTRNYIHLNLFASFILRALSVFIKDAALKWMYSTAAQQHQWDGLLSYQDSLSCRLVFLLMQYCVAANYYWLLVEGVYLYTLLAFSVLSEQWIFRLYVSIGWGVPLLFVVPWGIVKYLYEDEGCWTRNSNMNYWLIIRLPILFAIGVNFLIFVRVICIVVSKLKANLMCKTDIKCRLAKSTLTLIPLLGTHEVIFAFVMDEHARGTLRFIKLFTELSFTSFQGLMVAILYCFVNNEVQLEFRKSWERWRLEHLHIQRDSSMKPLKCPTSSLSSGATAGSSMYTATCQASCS
Method in brief: as §1

[4] = cAMP, incubated at 37° C., 0.1% bovine casein (no human serum albumin), geometric mean, read-out: hGIPR EC50, nM (SEM, n)
[5] = cAMP, incubated at 37° C., 0.1% bovine casein (no human serum albumin), geometric mean, read-out: hGCGR EC50, nM (SEM, n)
[6] = HEK293, 0.1% bovine casein and 1.0% human serum albumin, 37° C., percent of maximal response to GIP(1-42)NH2, read-out: hGIPR Emax, % ± SEM
[7] = 0.1% bovine casein and 1.0% human serum albumin, 37° C., geometric mean, read-out: hGCGR EC50, nM (SEM, n)
[8] = HEK293, 0.1% bovine casein and 1.0% human serum albumin, 37° C., percent of maximal response to GLP-1(7-36)NH2, read-out: hGLP-1R Emax, % ± SEM

CC[C@H](C)[C@H](NC(=O)[C@H](CCCN)NC(=O)[C@H](CC(=O)O)NC(=O)[C@H](CC(C)C)NC(=O)[C@](C)(CC(C)C)NC(=O)[C@@H](NC(=O)[C@H](CO)NC(=O)[C@H](CCCCNC(=O)COCCOCCNC(=O)COCCOCCNC(=O)CC[C@H](NC(=O)CCCCCCCCCCCCC(=O)O)C(=O)O)NC(=O)[C@H](CC(=O)O)NC(=O)[C@H](CO)NC(=O)[C@@H](NC(=O)[C@](C)(Cc1ccccc1F)NC(=O)[C@@H](NC(=O)CNC(=O)[C@H](CCC(=O)O)NC(=O)C(C)(C)NC(=O)[C@@H](N)Cc1ccc(O)cc1)[C@@H](C)O)[C@@H](C)O)[C@@H](C)CC)C(=O)N[C@@H](C)C(=O)N[C@@H](CCC(N)=O)C(=O)NC(C)(C)C(=O)N[C@@H](CCC(=O)O)C(=O)N[C@@H](Cc1ccccc1)C(=O)N[C@H](C(=O)N[C@H](CCC(=O)O)C(=O)N[C@@](C)(Cc1ccc(O)cc1)C(=O)N[C@@H](CC(C)C)C(=O)N[C@H](C(=O)N[C@@H](CCCCNC(=O)COCCOCCNC(=O)COCCOCCNC(=O)CC[C@H](NC(=O)CCCCCCCCCCCCC(=O)O)C(=O)O)C(=O)NCC(=O)NCC(=O)N1CCC[C@H]1C(=O)N[C@@H](CO)C(=O)N[C@@H](CO)C(=O)NCC(=O)N[C@@H](C)C(=O)N1CCC[C@H]1C(=O)N1CCC[C@H]1C(=O)N1CCC[C@H]1C(=O)N[C@@H](CO)C(N)=O)[C@@H](C)CC)[C@@H](C)CC [Example 107] (H-Y[Aib]EGT[αMePhe(2-F)]TSDK([AEEA-AEEA-γGlu-C14 diacid])SI[αMeL]LD[Orn]IAQ[Aib]EFI[dE][αMeY]LIK([AEEA-AEEA-γGlu-C14 diacid])GGPSSGAPPPS-NH2)
Emax ([1]; HEK293, percent of maximal response to GIP(1-42)NH2, 37° C., 0.1% bovine casein, arithmetic mean, read-out: hGIPR Emax, % ± SEM): 94.3%
EC50 [1, 4]: 0.0473 nM
EC50 [2, 5]: > 9950 nM
Emax ([3]; HEK293, percent of maximal response to GLP-1(7-36)NH2, 37° C., 0.1% bovine casein, arithmetic mean, read-out: hGLP-1R Emax, % ± SEM): 93.4%

CC[C@H](C)[C@H](NC(=O)[C@H](CC(C)C)NC(=O)[C@](C)(Cc1ccc(O)cc1)NC(=O)[C@@H](CCC(=O)O)NC(=O)[C@@H](NC(=O)[C@H](Cc1ccccc1)NC(=O)[C@H](CCC(=O)O)NC(=O)C(C)(C)NC(=O)[C@H](CCC(N)=O)NC(=O)[C@H](C)NC(=O)[C@H](CCCCNC(=O)COCCOCCNC(=O)COCCOCCNC(=O)CC[C@H](NC(=O)CCCCCCCCCCCCC(=O)O)C(=O)O)NC(=O)[C@H](CCCN)NC(=O)[C@H](CC(=O)O)NC(=O)[C@H](CC(C)C)NC(=O)[C@](C)(CC(C)C)NC(=O)[C@@H](NC(=O)[C@H](CO)NC(=O)[C@H](Cc1ccncc1)NC(=O)[C@H](CC(=O)O)NC(=O)[C@H](CO)NC(=O)[C@@H](NC(=O)[C@](C)(Cc1ccccc1F)NC(=O)[C@@H](NC(=O)CNC(=O)[C@H](CCC(=O)O)NC(=O)C(C)(C)NC(=O)[C@@H](N)Cc1ccc(O)cc1)[C@@H](C)O)[C@@H](C)O)[C@@H](C)CC)[C@@H](C)CC)C(=O)N[C@@H](CCCN)C(=O)NCC(=O)NCC(=O)N[C@@H](CCCCNC(=O)COCCOCCNC(=O)COCCOCCNC(=O)CC[C@H](NC(=O)CCCCCCCCCCCCC(=O)O)C(=O)O)C(=O)N[C@@H](CO)C(=O)N[C@@H](CO)C(=O)NCC(=O)N[C@@H](C)C(=O)N1CCC[C@H]1C(=O)N1CCC[C@H]1C(=O)N1CCC[C@H]1C(=O)N[C@@H](CO)C(N)=O [Example 151]
EC50 ([1]; 0.1% bovine casein and 1.0% human serum albumin, 37° C., geometric mean, read-out: hGIPR EC50, nM (SEM, n)): 0.306 nM
Emax [1, 6]: 87.5 ± 3.78%
EC50 [1, 4]: 0.0197 nM
EC50 [2, 7]: > 9950 nM
EC50 [2, 5]: > 9950 nM
EC50 ([3]; 0.1% bovine casein and 1.0% human serum albumin, 37° C., read-out: hGLP-1R EC50, nM (SEM, n)): 17.3 nM
Emax [3, 8]: 112 ± 8.42%
EC50 ([3]; cAMP, incubated at 37° C., 0.1% bovine casein (no human serum albumin), read-out: hGLP-1R EC50, nM (SEM, n)): 0.546 nM

CC[C@H](C)[C@H](NC(=O)[C@H](CCCN)NC(=O)[C@H](CC(=O)O)NC(=O)[C@H](CC(C)C)NC(=O)[C@](C)(CC(C)C)NC(=O)[C@@H](NC(=O)[C@H](CO)NC(=O)[C@H](Cc1ccc2ccccc2c1)NC(=O)[C@H](CC(=O)O)NC(=O)[C@H](CO)NC(=O)[C@@H](NC(=O)[C@](C)(Cc1ccccc1F)NC(=O)[C@@H](NC(=O)CNC(=O)[C@H](CCC(=O)O)NC(=O)C(C)(C)NC(=O)[C@@H](N)Cc1ccc(O)cc1)[C@@H](C)O)[C@@H](C)O)[C@@H](C)CC)C(=O)N[C@@H](C)C(=O)N[C@@H](CCC(N)=O)C(=O)NC(C)(C)C(=O)N[C@@H](CCC(=O)O)C(=O)N[C@@H](Cc1ccccc1)C(=O)N[C@H](C(=O)N[C@@H](CCCCNC(=O)COCCOCCNC(=O)COCCOCCNC(=O)CC[C@H](NC(=O)CCCCCCCCCCCCC(=O)O)C(=O)O)C(=O)N[C@@](C)(Cc1ccc(O)cc1)C(=O)N[C@@H](CC(C)C)C(=O)N[C@H](C(=O)N[C@@H](CCCCNC(=O)COCCOCCNC(=O)COCCOCCNC(=O)CC[C@H](NC(=O)CCCCCCCCCCCCC(=O)O)C(=O)O)C(=O)NCC(=O)NCC(=O)N1CCC[C@H]1C(=O)N[C@@H](CO)C(=O)N[C@@H](CO)C(=O)NCC(=O)N[C@@H](C)C(=O)N1CCC[C@H]1C(=O)N1CCC[C@H]1C(=O)N1CCC[C@H]1C(=O)N[C@@H](CO)C(N)=O)[C@@H](C)CC)[C@@H](C)CC [Example 252]
Emax [1, 6]: 87.2%
Emax ([1]; HEK293, cAMP, 37° C., 0.1% bovine casein, percent of maximal response to GIP(1-42)NH2, arithmetic mean, read-out: hGIPR Emax, % ± SEM): 109%
EC50 [2, 7]: > 9950 nM
EC50 ([2]; cAMP, 37° C., 0.1% bovine casein (no human serum albumin), geometric mean, read-out: hGCGR EC50, nM (SEM, n)): > 9950 nM
Emax [3, 8]: 115%
Emax ([3]; HEK293, cAMP, 37° C., 0.1% bovine casein, percent of maximal response to GLP-1(7-36)NH2, arithmetic mean, read-out: hGLP-1R Emax, % ± SEM): 115%
EC50 ([3]; cAMP, 37° C., 0.1% bovine casein (no human serum albumin), read-out: hGLP-1R EC50, nM (SEM, n)): 0.555 nM

CC[C@H](C)[C@H](NC(=O)[C@H](CC(C)C)NC(=O)[C@](C)(Cc1ccc(O)cc1)NC(=O)[C@H](CCCCNC(=O)CCCCCCCNC(=O)COCCOCCNC(=O)CC[C@H](NC(=O)CCCCCCCCCOc1ccc(C(=O)O)cc1)C(=O)O)NC(=O)[C@@H](NC(=O)[C@H](Cc1ccccc1)NC(=O)[C@H](CCCN)NC(=O)C(C)(C)NC(=O)[C@H](CCC(N)=O)NC(=O)[C@H](C)NC(=O)[C@H](CCC(N)=O)NC(=O)[C@H](CCCN)NC(=O)[C@H](CC(=O)O)NC(=O)[C@H](CC(C)C)NC(=O)[C@](C)(CC(C)C)NC(=O)[C@@H](NC(=O)C(C)(C)NC(=O)[C@H](Cc1ccncc1)NC(=O)[C@H](CC(=O)O)NC(=O)[C@H](CO)NC(=O)[C@@H](NC(=O)[C@](C)(Cc1ccccc1F)NC(=O)[C@@H](NC(=O)CNC(=O)[C@H](CCC(=O)O)NC(=O)C(C)(C)NC(=O)[C@@H](N)Cc1ccc(O)cc1)[C@@H](C)O)[C@@H](C)O)[C@@H](C)CC)[C@@H](C)CC)C(=O)N[C@@H](CCCCNC(=O)CCCCCCCNC(=O)COCCOCCNC(=O)CC[C@H](NC(=O)CCCCCCCCCOc1ccc(C(=O)O)cc1)C(=O)O)C(=O)NCC(=O)NCC(=O)N1CCC[C@H]1C(=O)N[C@@H](CO)C(=O)N[C@@H](CO)C(=O)NCC(=O)N[C@@H](C)C(=O)N1CCC[C@H]1C(=O)N1CCC[C@H]1C(=O)N1CCC[C@H]1C(=O)N[C@@H](CO)C(N)=O [Example 456]
Emax ([1]; HEK293, read-out: hGIPR Emax, % ± SEM, cAMP, 37° C., 0.1% bovine casein and 1.0% human serum albumin, percent of maximal response to GIP(1-42)NH2): 94.7%
EC50 ([1]; hGIPR EC50, nM (SEM, n), cAMP, 37° C., 0.1% bovine casein (no human serum albumin), geometric mean): 0.0236 nM
EC50 ([1]; hGIPR EC50, nM (SEM, n), cAMP, 37° C., 0.1% bovine casein and 1.0% human serum albumin, geometric mean (SEM, n)): 0.878 nM
EC50 ([2]; hGCGR EC50, nM (SEM, n), cAMP, 37° C., 0.1% bovine casein (no human serum albumin), geometric mean): > 9950 nM
EC50 ([2]; hGCGR EC50, nM (SEM, n), cAMP, 37° C., 0.1% bovine casein and 1.0% human serum albumin, geometric mean (SEM, n)): > 9950 nM
Emax ([3]; HEK293, read-out: hGLP-1R Emax, % ± SEM, cAMP, 37° C., 0.1% bovine casein and 1.0% human serum albumin, percent of maximal response to GLP-1(7-36)NH2): 112%
Emax ([3]; HEK293, read-out: hGLP-1R Emax, % ± SEM, cAMP, 37° C., 0.1% bovine casein, percent of maximal response to GLP-1(7-36)NH2, arithmetic mean): 116%
EC50 ([3]; hGLP-1R EC50, nM (SEM, n), cAMP, 37° C., 0.1% bovine casein (no human serum albumin)): 0.341 nM
